{
  "source": "patent US20090019923A1",
  "about": "“Method for measuring octanol-water distribution coefficients of surfactants” (Clariant International Ltd., priority 2007, published 2009)",
  "assay": "octanol-water distribution coefficient by slow stirring, evaporation/re-dissolution and surface tension vs. concentration calibration curve",
  "settings": "for conc. Caq (concentration in the aqueous layer): after equilibration with octanol, initial 1 g/L; for logP: initial 1 g/L in aqueous layer, residue in 0.2 M KCl, single samples of replicates A, B",
  "note": "Several values for one entry are separate records, joined by “and”; a condition that tells them apart may be missing. Identical values can stand only once.",
  "protocol": "Aqueous surfactant solution is equilibrated with octanol. The concentration of surfactant in the aqueous phase after equilibration is determined from the surface tension using a calibration curve. Interference from octanol is prevented by first removing it by evaporation and re-dissolution. The concentration of surfactant in the octanol layer is calculated from the change in concentration in the aqueous layer. Alternatively an aliquot of the octanol layer can be evaporated and re-dissolved in water to determine the concentration directly via surface tension.\nPreferably, equal or approximately equal volumes of water and octanol are used. The preferred method is stirring slowly for several hours. The minimum stirring time required will depend on the system and can, if necessary, be determined by running experiments with different stirring times. […] The stirring speed must be kept low enough for there to be two distinct phases during the whole course of the experiment. Other types of agitation (e.g. shaking, rolling, vibration) may also be used, provided they are gentle enough to avoid any mixing of the phases.\nEvaporating an aliquot of the aqueous phase and re-dissolving the residue in water or electrolyte solution. This removes octanol, which is surface active and would therefore interefere with the subsequent concentration determination via surface tension. It is covenient to take an aliquot of between 1 and 10 mL and re-dissolve in a larger volume of water (20-500 mL).\nThe surface tension may be measured by any convenient method, for example, the plate, ring or bubble pressure methods. Preferably a method should be used which allows an equilibration time of several minutes e.g. the plate method.\nThe calibration curve is obtained by measuring the surface tension of the surfactant at various concentrations. Exactly the same procedure should be used as for the re-dissolved residue solution. If an electrolyte solution is used in the dilution step, it must also be used for the calibration curve.\nP=Vaq(c0−caq)/(Voctcaq) (2)\nP=Vaq(c0−caq)/(Voctcnon-micellised) (3) • For cmc<caq cnon-micellised=cmc • For cmc≧caq cnon-micellised=caq\nEquilibration experiment: 100 mL of a 1 g/L aqueous solution of the surfactant and 100 mL octanol were placed in a conical flask. The two-phase system was stirred for eight hours on a magnetic stirrer. The stirring speed (100 rpm) was low enough for there to be two distinct layers. After the stirrer was switched off, the system was allowed to stand overnight. Then a 2 mL sample of the aqueous phase was placed in a tensiometer glass and evaporated to dryness in a drying cabinet. The residue was redissolved in 50 mL of 0.2 M KCl. The surface tension of this solution was measured with the Pt plate method. The solution was then diluted five times with 0.2 M KCl and the surface tension measured again. The concentration of surfactant was determined by comparison with a calibration curve. A duplicate experiment was run to check the reproducibility.\nEquilibration experiment: 100 mL of a 1 g/L aqueous solution of the surfactant and 100 mL octanol were placed in a conical flask. The two-phase system was stirred for eight hours on a magnetic stirrer. The stirring speed (100 rpm) was low enough for there to be two distinct layers. After the stirrer was switched off, the system was allowed to stand overnight. Then a 2 mL sample of the aqueous phase was placed in a tensiometer glass evaporated to dryness in a drying cabinet. The residue was redissolved in 50 mL of 0.2 M KCl. The surface tension of this solution was measured with the Pt plate method. The concentration of surfactant was determined by comparison with a calibration curve.",
  "data": [
    {"substance": "C10-C13 linear alkylbenzene sulfonate", "values": [
      {"measurement": "Non-micellised surfactant cnon-micellised", "setting": "aqueous layer at equilibrium, cmc greater than caq", "result": 0.16, "unit": "g/L"},
      {"measurement": "Equilibrium concentration in aqueous layer, caq", "setting": "original concentration 1 g/L, 100 mL water/100 mL octanol, stirred 8 h", "result": 0.16, "unit": "g/L"},
      {"measurement": "Concentation in octanol layer, c0-caq", "setting": "original concentration 1 g/L, from mass balance", "result": 840, "unit": "µg/mL"}
    ]},
    {"substance": "C22-amidoamine betaine", "values": [
      {"measurement": "conc. Caq (concentration in the aqueous layer)", "setting": "dilution factor 25", "result": "550 µg/mL and 630 µg/mL and 600 µg/mL"},
      {"measurement": "conc. Caq (concentration in the aqueous layer)", "setting": "dilution factor 125", "result": "570 µg/mL and 590 µg/mL and 630 µg/mL"},
      {"measurement": "logP", "setting": "100 mL water/100 mL octanol, stirred 8 h, dilution factor 25", "result": "−0.09 and −0.22 and −0.18"},
      {"measurement": "logP", "setting": "100 mL water/100 mL octanol, stirred 8 h, dilution factor 125", "result": "−0.12 and −0.15 and −0.22"},
      {"measurement": "logP mean", "setting": "initial concentration in the aqueous layer 1 g/L, mean of all samples and dilutions", "result": "−0.17"}
    ]}
  ]
}
